Reference: ChEMBL document CHEMBL5625257, “Design, synthesis, and evaluation of dual EGFR/AURKB inhibitors as anticancer agents for non-small cell lung cancer” (Bioorg Med Chem Lett, 2024)

Assays:
[1] = biological target: Epidermal growth factor receptor (Homo sapiens, UniProt P00533)
Description: Binding affinity to wild type human EGFR partial length (R669 to V1011 residues) expressed in bacterial expression system assessed as dissociation constant by DiscoverX kinomescan assay

[2] = biological target: T1, Epidermal growth factor receptor (Homo sapiens, UniProt P00533, L858R)
Description: Binding affinity to human partial length EGFR (R669 to V1011 residues) L858R mutant expressed in bacterial expression system assessed as dissociation constant by DiscoverX kinomescan assay

A549 = assay: Anticancer activity against human A549 cells harboring KRAS mutant assessed as inhibition of cell growth
[3] = biological target: T1, Epidermal growth factor receptor; remark: listed apart in the source
Description: Inhibition of EGFR L858R mutant phosphorylation (unknown origin) preincubated for 60 mins in the presence of ATP

[4] = biological target: T1, Epidermal growth factor receptor; remark: listed apart in the source
Description: Inhibition of EGFR L858R mutant phosphorylation (unknown origin) in the presence of ATP

[5] = biological target: T2, Aurora kinase B/Inner centromere protein (Homo sapiens, UniProt Q96GD4)
T2 sequence (Q96GD4 whole entry): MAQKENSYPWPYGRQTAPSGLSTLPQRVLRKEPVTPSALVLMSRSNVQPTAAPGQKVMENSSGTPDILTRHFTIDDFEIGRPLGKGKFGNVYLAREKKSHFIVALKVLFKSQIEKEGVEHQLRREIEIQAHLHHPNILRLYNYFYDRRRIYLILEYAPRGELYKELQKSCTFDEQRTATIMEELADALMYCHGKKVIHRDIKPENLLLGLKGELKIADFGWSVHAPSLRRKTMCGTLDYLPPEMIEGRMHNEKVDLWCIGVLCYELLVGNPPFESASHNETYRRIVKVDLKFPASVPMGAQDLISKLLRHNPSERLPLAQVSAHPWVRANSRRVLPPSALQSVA
T2 sequence (Q9NQS7 whole entry, further chain): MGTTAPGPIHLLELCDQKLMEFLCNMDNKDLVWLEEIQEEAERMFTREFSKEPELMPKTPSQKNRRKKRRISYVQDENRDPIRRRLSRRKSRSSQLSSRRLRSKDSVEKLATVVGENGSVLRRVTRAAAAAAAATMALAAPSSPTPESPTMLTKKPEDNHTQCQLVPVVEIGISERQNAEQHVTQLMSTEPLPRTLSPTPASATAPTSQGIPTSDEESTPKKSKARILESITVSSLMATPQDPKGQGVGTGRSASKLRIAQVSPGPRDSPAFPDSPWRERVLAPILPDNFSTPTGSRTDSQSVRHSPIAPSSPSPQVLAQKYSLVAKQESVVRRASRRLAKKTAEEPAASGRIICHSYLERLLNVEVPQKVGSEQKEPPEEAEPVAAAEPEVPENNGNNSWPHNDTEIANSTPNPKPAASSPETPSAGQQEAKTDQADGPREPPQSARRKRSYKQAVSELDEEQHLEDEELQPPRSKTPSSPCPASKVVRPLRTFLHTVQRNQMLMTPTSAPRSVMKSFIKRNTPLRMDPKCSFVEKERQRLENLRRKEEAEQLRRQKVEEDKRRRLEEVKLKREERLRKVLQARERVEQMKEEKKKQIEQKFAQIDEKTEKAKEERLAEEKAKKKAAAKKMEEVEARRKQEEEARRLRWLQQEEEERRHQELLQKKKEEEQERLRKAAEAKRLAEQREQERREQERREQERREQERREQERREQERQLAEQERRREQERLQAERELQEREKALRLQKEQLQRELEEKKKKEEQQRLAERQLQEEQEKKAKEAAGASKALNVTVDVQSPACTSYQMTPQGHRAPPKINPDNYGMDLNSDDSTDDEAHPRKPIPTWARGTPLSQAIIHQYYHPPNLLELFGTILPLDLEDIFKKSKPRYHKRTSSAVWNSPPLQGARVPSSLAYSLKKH
Description: Inhibition of AURKB/INCENP (unknown origin) preincubated for 60 mins in the presence of ATP at Km concentration

[6] = biological target: T2, Aurora kinase B/Inner centromere protein; remark: listed apart in the source
Description: Inhibition of AURKB/INCENP (unknown origin) in the presence of ATP at Km concentration

Aurora kinase B [7] = biological target: T3, Aurora kinase B (Homo sapiens, UniProt Q96GD4); assay: Inhibition of AURKB (unknown origin) by nanoBRET assay
T3 sequence (Q96GD4 whole entry): as the sequence (Q96GD4 whole entry) above

Aurora kinase B [8] = biological target: T3, Aurora kinase B
Description: Binding affinity to human partial length AURKB (D25 to A303 residues) expressed in mammalian system assessed as dissociation constant by DiscoverX kinomescan assay

NCI-H1975 = assay: cells; conditions: Homo sapiens
Description: Anticancer activity against TKI resistant human NCI-H1975 cells harboring EGFR L858R/T790M mutant assessed as inhibition of cell growth

T1 sequence (P00533 25-1210 L858R limits assumed): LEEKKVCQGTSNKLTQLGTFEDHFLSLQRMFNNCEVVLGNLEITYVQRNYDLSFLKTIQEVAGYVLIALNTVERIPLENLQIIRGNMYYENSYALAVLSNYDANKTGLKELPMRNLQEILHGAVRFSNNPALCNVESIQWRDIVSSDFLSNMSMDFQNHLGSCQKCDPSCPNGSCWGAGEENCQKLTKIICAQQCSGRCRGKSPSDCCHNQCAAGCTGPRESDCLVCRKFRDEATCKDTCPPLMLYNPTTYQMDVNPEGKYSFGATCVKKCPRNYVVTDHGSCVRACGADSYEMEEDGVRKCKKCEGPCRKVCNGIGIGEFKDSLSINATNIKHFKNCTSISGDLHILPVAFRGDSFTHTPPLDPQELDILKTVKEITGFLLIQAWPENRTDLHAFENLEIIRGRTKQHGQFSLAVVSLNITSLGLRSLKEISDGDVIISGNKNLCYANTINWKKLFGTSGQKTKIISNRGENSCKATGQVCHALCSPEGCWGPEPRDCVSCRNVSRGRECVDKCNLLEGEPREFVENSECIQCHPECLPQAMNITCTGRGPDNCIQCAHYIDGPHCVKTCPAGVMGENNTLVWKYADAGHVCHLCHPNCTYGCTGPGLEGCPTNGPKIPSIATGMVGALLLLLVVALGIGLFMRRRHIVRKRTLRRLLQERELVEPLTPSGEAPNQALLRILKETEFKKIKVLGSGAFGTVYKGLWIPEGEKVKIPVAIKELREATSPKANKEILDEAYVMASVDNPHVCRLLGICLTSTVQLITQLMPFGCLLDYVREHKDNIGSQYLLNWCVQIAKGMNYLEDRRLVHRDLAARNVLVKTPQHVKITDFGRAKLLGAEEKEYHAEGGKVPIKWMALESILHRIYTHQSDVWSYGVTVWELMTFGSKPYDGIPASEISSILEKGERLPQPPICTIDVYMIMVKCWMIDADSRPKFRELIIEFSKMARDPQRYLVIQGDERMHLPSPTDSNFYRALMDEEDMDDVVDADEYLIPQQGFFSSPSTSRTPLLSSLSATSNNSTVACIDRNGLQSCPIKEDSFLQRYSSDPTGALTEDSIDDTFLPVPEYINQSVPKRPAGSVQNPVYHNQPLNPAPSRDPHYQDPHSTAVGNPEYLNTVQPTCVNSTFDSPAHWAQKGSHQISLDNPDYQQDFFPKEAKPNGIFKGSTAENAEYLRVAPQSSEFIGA
Sequence of Epidermal growth factor receptor (Homo sapiens, UniProt P00533) (P00533 whole entry): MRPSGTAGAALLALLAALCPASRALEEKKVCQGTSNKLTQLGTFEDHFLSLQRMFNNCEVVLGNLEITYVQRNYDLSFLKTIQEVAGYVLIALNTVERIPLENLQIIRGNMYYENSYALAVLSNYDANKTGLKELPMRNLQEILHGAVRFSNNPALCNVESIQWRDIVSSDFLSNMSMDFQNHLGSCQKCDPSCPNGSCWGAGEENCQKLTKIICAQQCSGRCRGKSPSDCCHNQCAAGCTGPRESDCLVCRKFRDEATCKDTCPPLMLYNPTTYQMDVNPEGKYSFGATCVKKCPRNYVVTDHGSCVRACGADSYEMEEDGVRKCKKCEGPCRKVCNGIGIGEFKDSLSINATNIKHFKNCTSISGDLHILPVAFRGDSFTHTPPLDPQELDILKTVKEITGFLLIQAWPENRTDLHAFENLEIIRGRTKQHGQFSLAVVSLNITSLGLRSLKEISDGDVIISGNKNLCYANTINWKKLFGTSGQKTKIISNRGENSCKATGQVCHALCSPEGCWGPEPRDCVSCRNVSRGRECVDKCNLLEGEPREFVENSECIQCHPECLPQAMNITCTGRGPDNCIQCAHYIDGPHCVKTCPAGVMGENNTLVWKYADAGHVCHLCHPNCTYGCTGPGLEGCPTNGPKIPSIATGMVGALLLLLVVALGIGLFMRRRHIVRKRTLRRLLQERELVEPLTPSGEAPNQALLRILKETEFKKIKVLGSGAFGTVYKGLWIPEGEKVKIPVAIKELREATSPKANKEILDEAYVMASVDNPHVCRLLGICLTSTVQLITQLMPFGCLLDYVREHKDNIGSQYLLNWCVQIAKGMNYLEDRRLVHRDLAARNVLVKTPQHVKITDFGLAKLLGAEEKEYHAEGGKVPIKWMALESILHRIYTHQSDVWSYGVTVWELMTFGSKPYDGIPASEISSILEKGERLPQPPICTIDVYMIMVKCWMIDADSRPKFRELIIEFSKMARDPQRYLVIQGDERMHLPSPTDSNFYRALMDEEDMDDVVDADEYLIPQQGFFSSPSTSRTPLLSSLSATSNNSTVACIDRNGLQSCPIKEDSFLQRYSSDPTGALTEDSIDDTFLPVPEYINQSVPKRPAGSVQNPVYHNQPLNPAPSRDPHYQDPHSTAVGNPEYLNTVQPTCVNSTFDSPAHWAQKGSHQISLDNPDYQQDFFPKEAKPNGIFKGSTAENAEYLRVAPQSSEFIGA

Row | Structure (SMILES) | Kd [1] | Kd [2] | IC50 (A549) | IC50 [3] | IC50 [4] | IC50 [5] | IC50 [6] | IC50 (Aurora kinase B [7]) | Kd (Aurora kinase B [8]) | IC50 (NCI-H1975)
1 | COc1cc2c(Nc3ccc(NC(=O)c4ccccc4)cc3)ncnc2cc1OCCCN1CCOCC1 | 220 nM | 880 nM |  |  |  |  |  |  |  | 
2 | Brc1cccc(Nc2ncnc3[nH]ccc23)c1 |  |  | 20400 nM | 3 nM | 3 nM | 3800 nM | 2770 nM |  |  | 
3 | O=C(Nc1ccccc1)c1ccc(Nc2ncnc3[nH]ccc23)cc1 |  |  |  |  |  | 50 nM | 800 nM | 14700 nM |  | 
4 | Cn1nccc1-c1cc2c(Nc3ccc(OCc4ccccc4)cc3)ncnc2[nH]1 |  | 210 nM | 2920 nM | 69 nM | 70 nM | 1100 nM | 4000 nM |  | > 30000 nM | > 50000 nM
5 | COc1cccc2c1C(=O)c1c(O)c3c(c(O)c1C2=O)C[C@@](O)(C(=O)CO)C[C@@H]3O[C@H]1C[C@H](N)[C@H](O)[C@H](C)O1 [DOXORUBICIN] |  |  | 59 nM |  |  |  |  |  |  | 
